We go through 28 molecules from patent US20250313548A1 (Actio Biosciences, Inc., priority 2023, published 2025).

A value given as a limit tells only on which side of the number the result lay.

Chain of human, KCNT1 (Q5JUK3 whole entry): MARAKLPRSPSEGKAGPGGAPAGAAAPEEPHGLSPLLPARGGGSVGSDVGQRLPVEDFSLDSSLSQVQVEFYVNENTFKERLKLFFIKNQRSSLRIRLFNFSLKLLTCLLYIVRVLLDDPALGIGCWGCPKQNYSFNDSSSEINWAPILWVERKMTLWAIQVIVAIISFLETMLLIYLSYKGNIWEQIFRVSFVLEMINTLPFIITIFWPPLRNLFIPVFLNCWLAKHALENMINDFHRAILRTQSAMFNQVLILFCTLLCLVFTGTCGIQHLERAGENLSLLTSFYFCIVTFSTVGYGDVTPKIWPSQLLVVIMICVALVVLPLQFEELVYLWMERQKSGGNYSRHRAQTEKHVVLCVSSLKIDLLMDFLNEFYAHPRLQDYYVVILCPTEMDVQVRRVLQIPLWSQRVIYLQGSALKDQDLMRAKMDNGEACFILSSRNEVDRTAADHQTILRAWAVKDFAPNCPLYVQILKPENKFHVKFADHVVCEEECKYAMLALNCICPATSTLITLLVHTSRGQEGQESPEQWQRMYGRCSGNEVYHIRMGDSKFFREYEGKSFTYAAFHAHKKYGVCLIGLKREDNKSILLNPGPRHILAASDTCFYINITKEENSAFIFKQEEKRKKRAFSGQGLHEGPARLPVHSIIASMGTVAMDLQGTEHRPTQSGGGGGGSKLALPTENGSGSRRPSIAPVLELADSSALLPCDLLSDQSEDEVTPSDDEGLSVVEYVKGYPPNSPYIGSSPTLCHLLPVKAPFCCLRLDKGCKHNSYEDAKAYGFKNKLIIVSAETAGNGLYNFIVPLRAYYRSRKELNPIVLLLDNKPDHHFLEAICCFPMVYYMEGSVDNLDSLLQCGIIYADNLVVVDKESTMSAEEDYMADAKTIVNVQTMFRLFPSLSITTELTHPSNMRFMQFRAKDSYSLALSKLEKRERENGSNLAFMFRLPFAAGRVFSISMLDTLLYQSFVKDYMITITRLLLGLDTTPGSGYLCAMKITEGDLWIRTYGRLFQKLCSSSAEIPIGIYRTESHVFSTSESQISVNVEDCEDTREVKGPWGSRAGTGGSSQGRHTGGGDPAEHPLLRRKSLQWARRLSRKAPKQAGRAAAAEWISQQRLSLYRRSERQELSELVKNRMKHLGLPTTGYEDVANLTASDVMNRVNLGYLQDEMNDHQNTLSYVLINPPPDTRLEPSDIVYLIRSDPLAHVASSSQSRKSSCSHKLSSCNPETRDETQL

This assay concerns the target human, KCNT1 (Homo sapiens (Human), UniProt Q5JUK3). The assay can be described thus: FLIPR Tl/K Flux Assay. In kind it is cell-based. Particulars: HEK293 cells stably expressing human KCNT1; Tl+ flux stimulated with EC80 of agonist Loxapine. The procedure: HEK293 cells stably expressing human, KCNT1 were cultured in DMEM, 10% FBS, 100 U/mL penicillin-streptomycin and […] puromycin for selection purposes. One day before the assay, cells were detached using TrypLE™ Express and counted using a cell counter. Only cells with >85% viability were used for the assay. […] The cells were incubated overnight at 37° C., 5% (v/v) CO2.
On the day of the assay, the reagents were prepared following the FLIPR® Potassium Assay Kit manual: prepare 2× dye solution, dilute the dye with assay buffer (20 mM HEPES in 1× HBSS, PH7.4), addition of probenecid to a final concentration of 5 mM, and vortexed vigorously for 1-2 minutes. The cell plate was flicked to remove medium and tapped on paper towels to remove excess media. […] The cell plate was moved to a plate shaker, agitated at 600 rpm for two minutes, and then incubated at 25° C. for one hour.
The compounds were prepared in DMSO and transferred to a 384-well compound plate (PP, low binding), referred to as a source plate. Reference agonist (300 nM) compound and test inhibitor (10 mM) compounds were added to the compound plate and a 4-fold serial dilution was performed in DMSO. Using an ECHO dispenser, compounds were dispensed at 90 nL/well from the source plate to a 384-well compound plate (PP, low binding). After the dispensing was complete, 30 µL/well assay buffer was added to the compound plate and mixed for two minutes on a plate shaker. The cell plate, compound plate, and tips were loaded into the FLIPR instrument, and a transfer of 10 μl of 3× compound to the cell plate was initiated. The treated cell plate was kept at in the dark at 25° C. for 30 minutes. Chloride-free stimulation buffer containing 4× 2 mM Tl+ and 4×EC80 of agonist Loxapine was loaded into a 384-well compound plate (PP, low binding). After the 30-minute incubation, the cell plate, compound plate containing stimulation buffer, and FLIPR tips were loaded into the FLIPR instrument. After a baseline read, the FLIPR initiates a transfer of 10 μL of stimulation buffer containing Loxapine to the cell plate. The plate was read for 160 sec with 1 second interval reads to obtain the data.
The normalized fluorescence reading (RFU) was calculated as shown follow, while Fmax and Fmin stand for maximum and minimum of signal during defined time window. The IC50 was calculated by fitting % inhibition against log of compound concentrations with Hill equation using XLfit.
`Cc1cc(Cl)cc(C(=O)N[C@H]2CCc3nn(-c4ccnc(C(F)(F)F)c4)cc32)c1` [Compound I-98a]: the IC50 (as a rule, the midpoint of a concentration-inhibition curve) is below 0.25 µM.

The molecule `O=C(N[C@H]1CCCc2nc(-c3cc(C4CC4)ncc3F)oc21)c1cccc(C(F)(F)F)c1` [Compound I-165a, (S)-N-(2-(2-Cyclopropyl-5-fluoropyridin-4-yl)-4,5,6,7-tetrahydrobenzo[d]oxazol-7-yl)-3-(trifluoromethyl)benzamide] came in with an IC50 below 0.25 µM.

With `O=C(N[C@H]1CCn2nc(-c3ccnc(C(F)(F)F)c3)cc21)[C@@H]1C[C@H]1C(F)(F)F` [I-488^, (1R,2R)-2-(trifluoromethyl)-N—((S)-2-(2-(trifluoromethyl)pyridin-4-yl)-5,6-dihydro-4H-pyrrolo[1,2-b]pyrazol-4-yl)cyclopropane-1-carboxamide], the IC50 was below 0.25 µM.

`Cc1cnc(C(F)(F)F)cc1-c1cc2n(n1)CCC[C@@H]2NC(=O)c1ccnc(OC(F)(F)F)c1` [Compound I-181a, (S)-N-(2-(5-Methyl-2-(trifluoromethyl)pyridin-4-yl)-4,5,6,7-tetrahydropyrazolo[1,5-a]pyridin-4-yl)-2-(trifluoromethoxy)isonicotinamide] yielded an IC50 below 0.25 µM.

As to `COc1cc(F)cc(C(=O)N[C@H]2CCn3nc(-c4ccnc(C(F)(F)F)c4)cc32)c1` [Compound I-567a, (S)-3-Fluoro-5-methoxy-N-(2-(2-(trifluoromethyl)pyridin-4-yl)-5,6-dihydro-4H-pyrrolo[1,2-b]pyrazol-4-yl)benzamide], the IC50 was below 0.25 µM.

On to `Cc1cnc(C(F)(F)F)cc1-c1cc2n(n1)CCCC[C@@H]2NC(=O)c1cccc(C#N)c1` [Compound I-280a, (S)-3-Cyano-N-(2-(5-methyl-2-(trifluoromethyl)pyridin-4-yl)-5,6,7,8-tetrahydro-4H-pyrazolo[1,5-a]azepin-4-yl)benzamide], for which the IC50 is below 0.25 µM.

Consider `O=C(N[C@H]1CCc2nn(-c3ccnc(C(F)(F)F)c3)cc21)c1cncc(C(F)(F)F)n1` [Compound I-565a, (S)-6-(Trifluoromethyl)-N-(2-(2-(trifluoromethyl)pyridin-4-yl)-2,4,5,6-tetrahydrocyclopenta[c]pyrazol-4-yl)pyrazine-2-carboxamide], for which the IC50 was below 0.25 µM.

For `Cn1nc(C2CC2)cc1C(=O)N[C@H]1CCCCn2nc(-c3ccnc(C(F)(F)F)c3)cc21` [Compound I-388a], the IC50 is below 0.25 µM.

As for `COc1cc(-c2cc3n(n2)CC[C@@H]3NC(=O)c2cc(C(F)(F)F)nn2C)c(F)cn1` [Compound I-243a, (S)-N-(2-(5-Fluoro-2-methoxypyridin-4-yl)-5,6-dihydro-4H-pyrrolo[1,2-b]pyrazol-4-yl)-1-methyl-3-(trifluoromethyl)-1H-pyrazole-5-carboxamide], the IC50 was below 0.25 µM.

`Cn1nc(C(F)(F)F)cc1C(=O)N[C@H]1CCCc2oc(-c3cc(C(F)(F)F)ncc3Cl)nc21` [Compound I-189a]: the IC50 was below 0.25 µM.

Regarding `COc1cc(-c2nc3c(o2)CCC[C@@H]3NC(=O)c2cccc(C#N)c2)ccn1` [Compound I-294a, (S)-3-Cyano-N-(2-(2-methoxypyridin-4-yl)-4,5,6,7-tetrahydrobenzo[d]oxazol-4-yl)benzamide], the IC50 was below 0.25 µM.

Regarding “(rac)-N-(2-(2-Cyclopropylpyridin-4-yl)-4,5,6,7-tetrahydropyrazolo[1,5-a]pyridin-4-yl)-6-(trifluoromethyl)nicotinamide [Compound I-65]”, the IC50 is below 0.25 µM.

Consider `Cn1nc(C(F)(F)F)cc1C(=O)N[C@@H]1CCCc2sc(-c3ccnc(C(F)(F)F)c3)nc21` [Compound I-80b], for which the IC50 was above 1 µM.

With `Cc1nn(C(F)(F)F)cc1C(=O)N[C@H]1CCn2nc(-c3ccnc(C4CC4)c3)cc21` [Compound I-555a, (S)-N-(2-(2-Cyclopropylpyridin-4-yl)-5,6-dihydro-4H-pyrrolo[1,2-b]pyrazol-4-yl)-3-methyl-1-(trifluoromethyl)-1H-pyrazole-4-carboxamide], the IC50 is below 0.25 µM.

Turning to `COc1cc(-c2cc3n(n2)CC[C@@H]3NC(=O)c2cc3cccnn3c2)ccn1` [Compound I-292a, (S)-N-(2-(2-Methoxypyridin-4-yl)-5,6-dihydro-4H-pyrrolo[1,2-b]pyrazol-4-yl)pyrrolo[1,2-b]pyridazine-6-carboxamide], the IC50 is below 0.25 µM.

Turning to `Cc1ccccc1C(=O)N[C@@H]1CCc2nn(-c3ccnc(C(F)(F)F)c3)cc21` [Compound I-92b], the 50% inhibitory concentration (IC50) was above 1 µM.

For the molecule `COc1cc(C(=O)N[C@H]2CCc3nn(-c4ccnc(C(F)(F)F)c4)cc32)ccn1` [Compound I-332a, (S)-2-Methoxy-N-(2-(2-(trifluoromethyl)pyridin-4-yl)-2,4,5,6-tetrahydrocyclopenta[c]pyrazol-4-yl)isonicotinamide], the IC50 is below 0.25 µM.

Molecule `N#Cc1cc(F)cc(C(=O)N[C@@H]2CCCCn3nc(-c4ccnc(C5CC5)c4)cc32)c1` [Compound I-470b] came in with an IC50 below 0.25 µM.

`CCc1cc(C#N)cc(C(=O)N[C@H]2CCn3nc(-c4ccnc(C(F)(F)F)c4)cc32)c1` [Compound I-200a, (S)-3-Cyano-5-ethyl-N-(2-(2-(trifluoromethyl)pyridin-4-yl)-5,6-dihydro-4H-pyrrolo[1,2-b]pyrazol-4-yl)benzamide] returned an IC50 below 0.25 µM.

As for `COc1ccccc1C(=O)N[C@@H]1CCc2nn(-c3ccnc(C(F)(F)F)c3)cc21` [Compound I-94b], the IC50 was above 1 µM.

`Cn1nc(C(F)(F)F)cc1C(=O)N[C@H]1CCn2nc(-c3ccnc(C(C)(F)F)c3)cc21` [Compound I-537a, (S)-N-(2-(2-(1,1-Difluoroethyl)pyridin-4-yl)-5,6-dihydro-4H-pyrrolo[1,2-b]pyrazol-4-yl)-1-methyl-3-(trifluoromethyl)-1H-pyrazole-5-carboxamide] displayed an IC50 below 0.25 µM.

The molecule `Cn1nc(C(F)(F)F)cc1C(=O)N[C@H]1CCCc2sc(-c3ccnc(C(F)(F)F)c3)nc21` [Compound I-80a] registered a 50% inhibitory concentration (IC50) of 0.5 to 1 µM.

For `Cn1nc(OC2CC2)cc1C(=O)N[C@H]1CCCn2nc(-c3ccnc(C(F)(F)F)c3)cc21` [Compound I-370a], the half-maximal inhibitory concentration (IC50) is below 0.25 µM.

`Cc1cccc(C(=O)N[C@H]2CCCCc3nn(-c4ccnc(C5CC5)c4)cc32)c1` [Compound I-58a]: the IC50 is below 0.25 µM.

Take `CC(F)(F)c1cc(-c2cc3n(n2)CC[C@@H]3NC(=O)c2cccc(C#N)c2)ccn1` [Compound I-261a, (S)-3-Cyano-N-(2-(2-(1,1-difluoroethyl)pyridin-4-yl)-5,6-dihydro-4H-pyrrolo[1,2-b]pyrazol-4-yl)benzamide]: the IC50 was below 0.25 µM.

In turn, `Cn1nc(C(F)(F)F)cc1C(=O)N[C@H]1CCCc2sc(-c3ccnc(C(F)(F)F)c3)cc21` [Compound I-79a] gave an IC50 below 0.25 µM.

Consider `Cn1nc(C(F)(F)F)cc1C(=O)N[C@H]1CCCn2nc(-c3cc(C(F)(F)F)cs3)cc21` [Compound I-117a], for which the IC50 is below 0.25 µM.

In the case of `O=C(N[C@H]1CCCc2oc(-c3ccnc(C(F)(F)F)c3)nc21)c1cnn(C(F)(F)F)c1C(F)(F)F` [Compound I-531a, (S)-1,5-bis(trifluoromethyl)-N-(2-(2-(trifluoromethyl)pyridin-4-yl)-4,5,6,7-tetrahydrobenzo[d]oxazol-4-yl)-1H-pyrazole-4-carboxamide], the IC50 was below 0.25 µM.
